# ± gives the standard deviation of the averaged measurements.
# Experiments:
# [1] = compound: C=CC(=O)Nc1cc2c(Nc3ccc(F)c(Cl)c3)ncnc2cc1OCCCN1CCOCC1 [CANERTINIB]; assay: surviving fraction relative to DMSO-only wells; higher = less growth inhibition; settings: exposure time: 5 days
# Method in brief: (§1)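 Viability was determined by CellTiter-Glo luminescence, expressed as surviving fraction normalised to the median of DMSO-only wells. The cells were log-phase tumour cell lines seeded at 250–500 per well in 384-well plates and, after 24 hours, exposed continuously for five days to inhibitors at 0.5, 1, 5, 10, 50, 100, 500 and 1000 nM. Three screens per line were run, keeping only lines with replicate Pearson r >0.7 and median Z' >0.3.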
# [2] = compound: CC[C@@H]1C(=O)N(C)c2cnc(Nc3ccc(C(=O)NC4CCN(C)CC4)cc3OC)nc2N1C1CCCC1 [BI-2536]; assay: as above; settings: exposure time: 5 days
# Method in brief: as §1
Test System,surviving fraction ([1]; 0.5 nM),surviving fraction ([1]; 1 nM),surviving fraction ([1]; 5 nM),surviving fraction ([1]; 10 nM),surviving fraction ([1]; 50 nM),surviving fraction ([1]; 100 nM),surviving fraction ([1]; 500 nM),surviving fraction ([1]; 1000 nM),surviving fraction ([2]; 0.5 nM),surviving fraction ([2]; 1 nM),surviving fraction ([2]; 5 nM),surviving fraction ([2]; 10 nM),surviving fraction ([2]; 50 nM),surviving fraction ([2]; 100 nM),surviving fraction ([2]; 500 nM),surviving fraction ([2]; 1000 nM)
HCC202 BREAST,0.939 ± 0.12,0.93 ± 0.18,0.867 ± 0.21,0.682 ± 0.011,0.602 ± 0.19,0.494 ± 0.053,0.333 ± 0.057,0.177 ± 0.051,0.938 ± 0.18,0.952 ± 0.097,0.421 ± 0.034,0.345 ± 0.037,0.538 ± 0.033,0.502 ± 0.12,0.379 ± 0.044,0.306 ± 0.062
HCC1395 BREAST,0.955 ± 0.095,0.901 ± 0.022,1 ± 0.15,0.905 ± 0.059,1.13 ± 0.068,1.05 ± 0.021,1.06 ± 0.11,1.01 ± 0.066,1.04 ± 0.12,0.9 ± 0.043,0.709 ± 0.18,0.623 ± 0.15,0.729 ± 0.071,0.661 ± 0.05,1.11 ± 0.19,0.78 ± 0.029
HCC1806 BREAST,0.803 ± 0.11,0.688 ± 0.12,0.738 ± 0.081,0.706 ± 0.022,0.738 ± 0.12,0.639 ± 0.027,0.442 ± 0.043,0.328 ± 0.037,0.932 ± 0.046,0.749 ± 0.07,0.05 ± 0.0082,0.0447 ± 0.026,0.126 ± 0.025,0.136 ± 0.0081,0.106 ± 0.0027,0.0743 ± 0.015
HCC1954 BREAST,0.376 ± 0.025,0.336 ± 0.0092,0.382 ± 0.014,0.316 ± 0.014,0.263 ± 0.011,0.258 ± 0.015,0.136 ± 0.016,0.117 ± 0.0071,0.883 ± 0.13,0.766 ± 0.2,0.245 ± 0.035,0.235 ± 0.057,0.433 ± 0.0095,0.781 ± 0.0014,0.89 ± 0.035,0.699 ± 0.014
HMLE3 BREAST,0.883 ± 0.0092,0.909 ± 0.082,0.891 ± 0.044,0.898 ± 0.018,0.913 ± 0.024,0.838 ± 0.14,0.847 ± 0.028,0.872 ± 0.1,1.04 ± 0.14,1.09 ± 0.1,0.819 ± 0.076,0.216 ± 0.0056,0.0467 ± 0.014,0.0453 ± 0.015,0.0567 ± 0.011,0.063 ± 0.007
HMT3552 BREAST,0.832 ± 0.042,0.838 ± 0.058,0.804 ± 0.014,0.774 ± 0.029,0.828 ± 0.079,0.8597 ± 0.0078,0.696 ± 0.037,0.604 ± 0.015,0.781,0.352,0.14,0.192,0.221,0.205,0.121,0.11
HS57T BREAST,0.946 ± 0.044,0.899 ± 0.047,0.893 ± 0.11,0.911 ± 0.02,0.919 ± 0.081,0.908 ± 0.012,0.843 ± 0.047,0.692 ± 0.02,1.1 ± 0.045,0.986 ± 0.028,0.216 ± 0.016,0.114 ± 0.011,0.0903 ± 0.0047,0.0937 ± 0.0085,0.156 ± 0.025,0.127 ± 0.009
HS578T BREAST,0.851 ± 0.12,0.857 ± 0.1,0.873 ± 0.066,0.785 ± 0.038,1.04 ± 0.14,1 ± 0.11,0.918 ± 0.11,0.738 ± 0.14,0.828 ± 0.093,0.73 ± 0.075,0.253 ± 0.013,0.196 ± 0.02,0.131 ± 0.015,0.132 ± 0.025,0.144 ± 0.0045,0.135 ± 0.012
HT1080 SOFT TISSUE,1.02 ± 0.015,1.05 ± 0.03,0.9963 ± 0.0099,0.997 ± 0.0076,1.019 ± 0.0087,0.987 ± 0.031,0.982 ± 0.058,0.97 ± 0.038,1.05 ± 0.027,1.067 ± 0.01,0.9357 ± 0.0021,0.087 ± 0.0056,0.0513 ± 0.0051,0.051 ± 0.0035,0.077 ± 0.0046,0.0823 ± 0.0095
HU09 BONE,0.807 ± 0.14,0.891 ± 0.066,0.977 ± 0.058,0.904 ± 0.079,1.02 ± 0.086,1.02 ± 0.081,0.766 ± 0.033,0.478 ± 0.027,1.03 ± 0.049,0.939 ± 0.14,0.066 ± 0.0044,0.0487 ± 0.0047,0.086 ± 0.033,0.076 ± 0.017,0.0617 ± 0.0081,0.0403 ± 0.0032
HUO3N1 BONE,0.949 ± 0.063,0.949 ± 0.015,0.965 ± 0.069,0.943 ± 0.069,1 ± 0.027,0.995 ± 0.02,0.808 ± 0.03,0.701 ± 0.022,0.991 ± 0.0085,0.994 ± 0.071,0.6 ± 0.1,0.242 ± 0.035,0.211 ± 0.0099,0.204 ± 0.022,0.265 ± 0.014,0.303 ± 0.016
JIMT1 BREAST,0.896 ± 0.02,0.904 ± 0.029,0.94 ± 0.029,0.911 ± 0.021,0.968 ± 0.021,0.897 ± 0.042,0.633 ± 0.041,0.541 ± 0.042,0.941 ± 0.041,0.737 ± 0.015,0.2183 ± 0.0013,0.181 ± 0.0095,0.18 ± 0.017,0.158 ± 0.02,0.143 ± 0.0061,0.0883 ± 0.0045
JURKAT HAEMATOPOIETIC AND LYMPHOID TISSUE,1.01 ± 0.025,0.977 ± 0.045,1.02 ± 0.018,0.952 ± 0.041,0.978 ± 0.03,0.978 ± 0.014,1.01 ± 0.031,0.839 ± 0.043,1.04 ± 0.022,0.911 ± 0.015,0.028 ± 0.001,0.0257 ± 0.00058,0.0297 ± 0.00058,0.0217 ± 0.00058,0.0177 ± 0.00058,0.021
LM7 BONE,0.739 ± 0.015,0.657 ± 0.0061,0.791 ± 0.019,0.75 ± 0.012,0.88 ± 0.044,0.872 ± 0.085,0.655 ± 0.026,0.536 ± 0.027,0.925 ± 0.054,0.688 ± 0.027,0.0677 ± 0.0055,0.076 ± 0.0056,0.137 ± 0.013,0.128 ± 0.025,0.0773 ± 0.004,0.0653 ± 0.012
LNCAP PROSTATE,1.1 ± 0.078,1 ± 0.059,1.09 ± 0.06,1.08 ± 0.036,1.01 ± 0.057,1.04 ± 0.055,0.935 ± 0.093,0.782 ± 0.086,1.05 ± 0.099,1.03 ± 0.08,0.0577 ± 0.0084,0.0533 ± 0.0055,0.113 ± 0.018,0.115 ± 0.028,0.141 ± 0.022,0.112 ± 0.013
MCF7 BREAST,0.838 ± 0.027,0.831 ± 0.023,0.818 ± 0.02,0.79 ± 0.018,0.888 ± 0.02,0.859 ± 0.039,0.854 ± 0.082,0.808 ± 0.026,0.911 ± 0.071,0.913 ± 0.07,0.797 ± 0.074,0.445 ± 0.018,0.408 ± 0.021,0.38 ± 0.022,0.394 ± 0.01,0.319 ± 0.0042
MDAMB134 BREAST,0.622 ± 0.012,0.659 ± 0.074,0.562 ± 0.0064,0.577 ± 0.0092,0.767 ± 0.12,0.831 ± 0.022,0.868 ± 0.066,0.718 ± 0.016,0.944 ± 0.11,0.699 ± 0.069,0.792 ± 0.03,0.835 ± 0.034,1.2 ± 0.058,1.101 ± 0.0092,0.788 ± 0.0092,0.644 ± 0.048
MDAMB157 BREAST,0.847 ± 0.035,0.86 ± 0.088,0.858 ± 0.048,0.936 ± 0.049,0.921 ± 0.067,0.844 ± 0.089,0.753 ± 0.013,0.658 ± 0.051,0.912 ± 0.041,0.62 ± 0.19,0.0967 ± 0.0025,0.0937 ± 0.013,0.093 ± 0.0095,0.157 ± 0.033,0.224 ± 0.013,0.255 ± 0.0076
MDAMB436 BREAST,0.798 ± 0.056,0.875 ± 0.064,0.854 ± 0.065,0.839 ± 0.061,0.956 ± 0.094,0.98 ± 0.13,0.839 ± 0.054,0.742 ± 0.067,0.841 ± 0.027,0.649 ± 0.065,0.4 ± 0.048,0.27 ± 0.0028,0.331 ± 0.017,0.379 ± 0.032,0.394 ± 0.027,0.38 ± 0.04
MDAMB453 BREAST,1.04 ± 0.026,1 ± 0.016,1.01 ± 0.058,1.01 ± 0.071,1.02 ± 0.047,1.07 ± 0.026,0.823 ± 0.0089,0.637 ± 0.067,0.994 ± 0.018,0.763 ± 0.052,0.178 ± 0.019,0.156 ± 0.025,0.173 ± 0.017,0.171 ± 0.0075,0.108 ± 0.031,0.0703 ± 0.042
MDAMB468 BREAST,0.866 ± 0.035,0.837 ± 0.087,0.841 ± 0.087,0.777 ± 0.054,0.789 ± 0.068,0.72 ± 0.07,0.478 ± 0.029,0.382 ± 0.017,0.902 ± 0.037,0.462 ± 0.048,0.0863 ± 0.0084,0.111 ± 0.018,0.215 ± 0.018,1.05 ± 0.061,0.111 ± 0.008,0.084 ± 0.0027
